Data from US9861640B2, “Medicament for treatment of Alzheimer's disease” (KEMPHYS LTD., priority 2013, dated 2018).

System: IL-4Rα
Experiment: Immunoblot of IL-4Rα in MG5 cells
Assay type: cell-based, mouse
Conditions: 5 μM each, 48 h
Description: Primary microglia (type 1) were harvested from primary mixed glial cell cultures prepared from neonatal Wistar rat pups, as previously reported. Mouse microglial cell line MG5 and mouse glial cell line A1 were maintained as previously described. Mouse neuroblastoma cell line N1E-115 and Neuro 2a (American Type Culture Collection, Manassas, Va., USA) were maintained in Dulbecco's modified Eagle's medium (DMEM) supplemented with 10% fetal bovine serum (FBS), 20 U/ml penicillin (Invitrogen, Gaithersburg, Md., USA), and 20 μg/ml streptomycin (Invitrogen). Primary rat microglia were treated with Am80 (5 μM) and/or HX630 (5 μM) in the presence and absence of GW9662 (10 μM) for 48 h in Eagle's MEM supplemented with 10% FBS and 0.2% glucose. MG5 cells and A1 cells were treated with Am80 (5 μM) and/or HX630 (5 μM) for 48 h in DMEM containing 10% FBS. […]
Rat primary microglia and mouse microglial MG5 cells (5×10^6 cells per 100-mm dish) were homogenized in RIPA buffer [10 mM Hepes-NaOH (pH 7.4) containing 150 mM NaCl, 1 mM EDTA, 1% Triton X-100, 0.5% sodium deoxycholate, 0.1% SDS, 1 mM PMSF, 1 mg/ml leupeptin. […] Bound horseradish peroxidase-labeled antibodies were then detected via chemiluminescence (an ECL kit; Pierce, Rockford, Ill., USA). Protein concentrations were determined with the BCA Protein Assay Reagent (Pierce) and Bradford Protein Assay Reagent (Pierce).

Row | Compound | IL-4Rα protein levels in MG5 cells
1 | CC1(C)CCC(C)(C)c2cc(NC(=O)c3ccc(C(=O)O)cc3)ccc21 [Am80, 4-{(5,6,7,8-tetrahydro-5,5,8,8-tetramethyl-2-naphthalenyl)carbamoyl}benzoic acid] | did not increase
2 | CN1c2ccccc2N=C(c2ccc(C(=O)O)cc2)c2cc3c(cc21)C(C)(C)CCC3(C)C [HX630, 4-[5H-2,3-(2,5dimethyl-2,5-hexano)-5-methyldibenzo[b,e]-diazepin-11-yl]benzoic acid] | did not increase
